# Article PMC10876669, “Substrate promiscuity of inositol 1,4,5-trisphosphate kinase driven by structurally-modified ligands and active site plasticity” (Nature Communications, 2024)
# Values joined by “and” are separate entries in the source; they are usually repeats but may differ in a detail not shown here. Equal values may be shown once.
# Target: T1, IP3K-KD (human IP3K-KD A isoform, residues 187–461) (Homo sapiens, UniProt P23677)
# T1 construct: human IP3K-KD A isoform (residues 187–461); GST (cleaved yes); made in house; host or cells: Escherichia coli BL21 star (DE3)
# Assay: Fluorescence thermal shift analysis (Tycho NT.6, inflection temperature Ti)
# Format: binding
# Conditions: for Ti, transition 1 (mean inflection temperature) / Ti, transition 2 (mean inflection temperature): 10 μM IP3K-KD, 100 μM chiral or 200 μM racemic ligand, AMP-PNP or ADP, 100 μM MgCl2; for Ti, transition 1 (mean inflection temperature) / Ti, transition 2 (mean inflection temperature) / ΔTi, transition 1 / ΔTi, transition 2: mean ± SD, n=3; for ΔTi, transition 1: Ti minus Ti of apo IP3K-KD (44.4); for ΔTi, transition 2: Ti minus Ti of apo IP3K-KD (53.8); for Transition 1 Ti, individual measurement / Transition 2 Ti, individual measurement: source data of Fig. 6b/6c, single replicates; for Transition 1 Dti (Ti-Ti Apo) / Transition 1 Ti Mean / Transition 2 DTi (Ti-Ti Apo) / Transition 2 Ti Mean: source data of Fig. 6c, N 3; for Binding to IP3K (in words): Fig. 6b,c; for Stabilization of IP3K-KD by ligand (in words): thermal shift, Fig. 6c
# Method: A construct encoding human IP3K-KD A isoform (residues 187–461) into pOPTG vector was used[16]. The protein was expressed in Escherichia coli BL21 star (DE3) strain. Cells were grown at 37 °C to OD600 = 1.0 then induced with 0.4 mM IPTG for 18 h at 16 °C. Protein purification was performed by adapting the reported protocol. Cells were resuspended in buffer A (10 mM Tris pH 7.5 [4 °C], 200 mM NaCl and 2 mM DTT) and disrupted by sonication. Clarified cell lysate was diluted 1/4 in buffer B (10 mM Tris pH 7.5 [4 °C] and 2 mM DTT) and loaded into a 5 mL HiTrap heparin column (GE Healthcare) washed by buffer C (20 mM Tris pH 7.5, 50 mM NaCl and 2 mM DTT), and eluted with a 0.05 M–1 M salt gradient. The eluted sample was subsequently loaded on to a 5 mL glutathione–Sepharose HP column (GE Healthcare), washed with buffer A and eluted with reduced glutathione 10 mM (Sigma-Aldrich) in buffer A. The GST tag was cleaved with home-made TEV (tobacco etch virus) protease overnight at 4 °C, (1:40 TEV/protein mass ratio). After glutathione removal with a PD10 column, the cleaved protein was further purified using a 5 mL glutathione–Sepharose HP column (GE Healthcare) followed by gel filtration on a 16/600 Superdex200 (GE Healthcare) column equilibrated in buffer D (20 mM Tris pH 7.5 [4 °C], 0.05 M (NH4)2SO4 and 2 mM DTT). Protein samples were analyzed by SDS/PAGE, concentrated around 18 mg/mL and stored at −80 °C until use.
# Thermal protein denaturation was documented by recording intrinsic protein fluorescence at 330 and 350 nm wavelengths. The fluorescence recorded in each thermal run is plotted as 350/330 nm ratio and used to calculate the Inflection Temperature (Ti). Ti is the temperature at which a protein undergoes a transition in its folding state. This calculation is performed automatically by the Tycho NT.6 software. The protocol optimized for this procedure, involves a heating time of 2 min, a sample volume of 10 μl placed in a very thin capillary, and a temperature ramp from 35 °C (308 K) to 95 °C (368 K). For the experiment, IP3K-KD was diluted with buffer D to achieve a concentration of 0.31 mg/mL (10 μM). It was then mixed with 100 μM of chiral ligands or 200 μM of racemic ligands (all synthesized as stated in this work except InsP3 and InsP4 that were commercial from Avanti Polar Lipids), AMP-PNP (substrate analogues) or ADP (product-like ligands) and 100 μM MgCl2. Microsoft Excel was used to calculate and plot ΔTi values and standard deviations.
# T1 sequence (P23677 187-461): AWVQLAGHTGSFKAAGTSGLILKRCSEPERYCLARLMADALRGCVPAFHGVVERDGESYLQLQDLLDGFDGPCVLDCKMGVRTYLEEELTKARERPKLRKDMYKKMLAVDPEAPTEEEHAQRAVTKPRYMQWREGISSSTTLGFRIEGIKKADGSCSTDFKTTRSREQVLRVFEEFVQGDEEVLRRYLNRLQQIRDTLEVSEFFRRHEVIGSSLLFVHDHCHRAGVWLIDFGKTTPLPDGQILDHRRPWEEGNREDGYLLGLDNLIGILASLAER
structure (smiles),measurement,value
"O=P(O)(O)O[C@@H]1[C@@H](O)[C@@H](O)[C@@H](OP(=O)(O)O)[C@H](OP(=O)(O)O)[C@H]1O [2-s, D-myo-inositol 1,4,6-trisphosphate]","Ti, transition 1 (mean inflection temperature)",53.1 ± 0.3 ºC
same,"Ti, transition 2 (mean inflection temperature)",58.4 ± 0.2 ºC
same,"ΔTi, transition 1",8.7 ± 0.4 ºC
same,"ΔTi, transition 2",4.6 ± 0.2 ºC
same,"Transition 1 Ti, individual measurement",53.1 and 52.8 and 53.3
same,"Transition 2 Ti, individual measurement",58.2 and 58.5 and 58.4
same,Transition 1 Dti (Ti-Ti Apo),8.7
same,Transition 1 Ti Mean,53.1
same,Transition 2 DTi (Ti-Ti Apo),4.6
same,Transition 2 Ti Mean,58.4
"CO[C@@H]1O[C@H](CO)[C@@H](O[C@H]2O[C@H](CO)[C@@H](OP(=O)(O)O)[C@H](OP(=O)(O)O)[C@H]2O)[C@H]1OP(=O)(O)O [compound 8, ribophostin]","Ti, transition 1 (mean inflection temperature)",44.2 ± 0.2 ºC
same,"Ti, transition 2 (mean inflection temperature)",54.1 ± 0.1 ºC
same,Binding to IP3K (in words),"do not, or barely, bind IP3K"
same,"ΔTi, transition 1",-0.2 ± 0.3 ºC
same,"ΔTi, transition 2",0.3 ± 0.2 ºC
same,"Transition 1 Ti, individual measurement",44.2 and 44.1 and 44.4
same,"Transition 2 Ti, individual measurement",54.1 (2×) and 54.2
same,Transition 1 Dti (Ti-Ti Apo),-0.167
same,Transition 1 Ti Mean,44.2
same,Transition 2 DTi (Ti-Ti Apo),0.333
same,Transition 2 Ti Mean,54.1
same,Stabilization of IP3K-KD by ligand (in words),failure to obtain crystal complexes or observe protein stabilization
"O=P(O)(O)O[C@@H]1[C@H](O)[C@@H](O)[C@@H](OP(=O)(O)O)[C@H](OP(=O)(O)O)[C@H]1O [4-s, L-chiro-inositol 2,3,5-trisphosphate]","Ti, transition 1 (mean inflection temperature)",51.7 ± 0.1 ºC
same,"Ti, transition 2 (mean inflection temperature)",57.3 ± 0.1 ºC
same,"ΔTi, transition 1",7.3 ± 0.3 ºC
same,"ΔTi, transition 2",3.5 ± 0.2 ºC
same,"Transition 1 Ti, individual measurement",51.8 and 51.7 (2×)
same,"Transition 2 Ti, individual measurement",57.2 and 57.3 (2×)
same,Transition 1 Dti (Ti-Ti Apo),7.3
same,Transition 1 Ti Mean,51.7
same,Transition 2 DTi (Ti-Ti Apo),3.5
same,Transition 2 Ti Mean,57.3
"CO[C@@H]1O[C@H](CO)[C@@H](O[C@H]2[C@H](O)[C@H](O)[C@@H](OP(=O)(O)O)[C@H](OP(=O)(O)O)[C@H]2O)[C@H]1OP(=O)(O)O [compound 9, D-chiro-inositol ribophostin]","Ti, transition 1 (mean inflection temperature)",44.5 ± 0.4 ºC
same,"Ti, transition 2 (mean inflection temperature)",54.5 ± 0.1 ºC
same,Binding to IP3K (in words),"do not, or barely, bind IP3K"
same,"ΔTi, transition 1",0.1 ± 0.5 ºC
same,"ΔTi, transition 2",0.7 ± 0.2 ºC
same,"Transition 1 Ti, individual measurement",44.2 and 44.9 and 44.5
same,"Transition 2 Ti, individual measurement",54.5 (2×) and 54.4
same,Transition 1 Dti (Ti-Ti Apo),0.133
same,Transition 1 Ti Mean,44.5
same,Transition 2 DTi (Ti-Ti Apo),0.667
same,Transition 2 Ti Mean,54.5
same,Stabilization of IP3K-KD by ligand (in words),failure to obtain crystal complexes or observe protein stabilization
